Data taken from article PMC6312923 (Life Science Alliance, 2018).

What was measured:
HEK293 cells, PCNA foci = test: Co-localization of Cdt2 with PCNA foci (S phase) in HEK293 cells; format: cell-based, human; details: stable HEK293, asynchronous, pre-extracted
Text: XPA, a component of nucleotide excision repair, staining was used to confirm that similar extents of DNA damage were induced both in Cdt2^WT- and Cdt2^PIP-3A-expressing cells. […] A similar percentage of PCNA-positive S-phase cells was detected both in Cdt2^1–730/WT-expressing cells and Cdt2^PIP-3A-expressing cells (Fig S6). […] More than 80% of PCNA-positive cells were co-stained with Cdt2^WT, with the early S-phase cells displaying stronger Cdt2^WT staining than the late S-phase cells as reported ([Nukina et al, 2018]) (Figs 6B and C, and S6A).
Figure 6. The Cdt2 PIP box is important for its recruitment to DNA damage sites and replication foci and for poly-ubiquitination activity. (A) HEK293 and stable Cdt2^WT or Cdt2^PIP-3A cells were locally UV irradiated, and stained for XPA and FLAG (Cdt2). XPA-positive spots were examined for FLAG signal, and its frequency was counted (%). More than 50 spots were examined. bar:10 μm. […] Bar: 10 μm. […] (D) Whole-cell extracts were prepared from HEK293 and stably transfected cells of Cdt2^WT or Cdt2^PIP-3A cells, separated into soluble (Sup) and chromatin-containing insoluble (Ppt) fractions, and were examined for indicated proteins. The asterisk indicates nonspecific bands. […]
For Western blotting, whole-cell lysates were prepared by lysing cell pellets directly in SDS–PAGE buffer. […] Protein levels were analysed by ImageJ software.

PCNA = test: Co-immunoprecipitation of PCNA with FLAG-tagged Cdt2 constructs; format: cell-based, human; details: for interaction with PCNA (reverse IP, anti-Myc): Myc-PCNA co-transfected, HEK293; for interaction with PCNA (anti-FLAG IP): cross-linked cells, 3FLAG fusions, no UV
Text: Before cell lysate preparation, cells were cross-linked.
Figure 3. […] HEK293 cells were transfected with plasmids expressing the indicated Cdt2 fused to a C-terminal FLAG tag, cross-linked, and precipitated with anti-FLAG antibodies (arrows). […] The bands in the blank lanes for Cul4A blotting correspond to the cross-reacting bands to pre-stained marker. […] HEK293 cells were transfected with the indicated plasmids and treated as in A. * indicates nonspecific bands derived from IgGs. (C) A schematic drawing of the Cdt2 domain structure highlighting the C-terminal PIP box and a sequence alignment of PIP boxes in various organisms. The alanine-changed PIP box mutant of Cdt2 was shown (PIP-3A) together with Cdt1 PIP box. (D) HEK293 cells were transfected with Cdt2^WT or PIP box mutant (Cdt2^PIP-3A) C-terminally fused to a FLAG tag, treated as in B, and Cdt2 was precipitated with anti-FLAG resin.
Control or Cdt2-FLAG expressing 293 cells that were UV irradiated (50 J/m^2), or not UV irradiated, or in the middle S phase (5 h after release from aphidicolon arrest) were fixed with 0.02% formaldehyde for 10 min, lysed using 0.1% Triton X-100-containing modified cytoskeleton (mCSK) buffer (10 mM Pipes, pH 7.9, 100 mM NaCl, 300 mM sucrose, 0.1% [vol/vol] Triton X-100, 1 mM phenylmethylsulfonyl fluoride, 10 mM β-glycerophosphate, 1 mMNa3VO4, 10 mM NaF), and then sonicated. After centrifugation (120,000g, Beckman Type 45Ti rotor, for 20 min at 4°C), the supernatants were mixed with anti-FLAG antibody-conjugated magnetic beads (M8823; Sigma-Aldrich) for 1 h at 4°C to obtain immunoprecipitates. The precipitate was washed with ice-cold 0.1% Triton X-100 containing mCSK buffer and subsequently suspended in SDS sample buffer.

| Molecule | PCNA-positive cells co-stained with Cdt2 (HEK293 cells, PCNA foci) | interaction with PCNA (reverse IP, anti-Myc) (PCNA) | interaction with PCNA (anti-FLAG IP) (PCNA) | Cdt2 signal in PCNA foci (HEK293 cells, PCNA foci) |
| --- | --- | --- | --- | --- |
| Cdt2: Cdt2 tagged with GFP, transiently expressed in MCF7 cells | More than 80% | co-precipitated with Myc-PCNA | interact with PCNA |  |
| Cdt2^PIP-3A: Cdt2 with I709, Y712, and F713 all mutated to alanine (protein, UniProt Q9NZJ0 1-730, looked up, variant I709A Y712A F713A, FLAG tag, Cdt2 with I709, Y712, and F713 all mutated to alanine) Denticleless protein homolog: MLFNSVLRQPQLGVLRNGWSSQYPLQSLLTGYQCSGNDEHTSYGETGVPVPPFGCTFSSAPNMEHVLAVANEEGFVRLYNTESQSFRKKCFKEWMAHWNAVFDLAWVPGELKLVTAAGDQTAKFWDVKAGELIGTCKGHQCSLKSVAFSKFEKAVFCTGGRDGNIMVWDTRCNKKDGFYRQVNQISGAHNTSDKQTPSKPKKKQNSKGLAPSVDFQQSVTVVLFQDENTLVSAGAVDGIIKVWDLRKNYTAYRQEPIASKSFLYPGSSTRKLGYSSLILDSTGSTLFANCTDDNIYMFNMTGLKTSPVAIFNGHQNSTFYVKSSLSPDDQFLVSGSSDEAAYIWKVSTPWQPPTVLLGHSQEVTSVCWCPSDFTKIATCSDDNTLKIWRLNRGLEEKPGGDKLSTVGWASQKKKESRPGLVTVTSSQSTPAKAPRAKCNPSNSSPSSAACAPSCAGDLPLPSNTPTFSIKTSPAKARSPINRRGSVSSVSPKPPSSFKMSIRNWVTRTPSSSPPITPPASETKIMSPRKALIPVSQKSSQAEACSESRNRVKRRLDSSCLESVKQKCVKSCNCVTELDGQVENLHLDLCCLAGNQEDLSKDSLGPTKSSKIEGAGTSISEPPSPISPYASESCGTLPLPLRPCGEGSEMVGKENSSPENKNWLLAMAAKRKAENPSPRSPSSQTPNSRRQSGKKLPSPVTITPSSMRKACTAAHRKSQEDFCGPEHSTEL |  | not detected in the precipitates | lost almost entirely | almost no signal was detected |
